Measured values as given in patent US9409952B2, “Peptide-compound cyclization method” (Chugai Seiyaku Kabushiki Kaisha, priority 2011, dated 2016).
Starred links: 1 amine or outer side, 2 acyl side, 3 side chain; linkers in the order of their positions; H or OH if unused. Positions of bridges follow the written chain, without caps; N, C: chain ends. Non-standard residues stand in square brackets, D forms with d. Residues, ends and D or L forms follow the SMILES beside them. *: point of attachment. NMeF = CN[C@@H](Cc1ccccc1)C(=O)O; NMeGABA = CN(CCCC(=O)[*:2])[*:1]; NMeI = CC[C@H](C)[C@H](NC)C(=O)O; NMeβAla = CN(CCC(=O)[*:2])[*:1]; NMeL = CN[C@@H](CC(C)C)C(=O)O; NMeV = CN[C@H](C(=O)O)C(C)C; NMeA = CN[C@@H](C)C(=O)O; Piperidide = C1CCN(*)CC1; dNMeA = CN[C@H](C)C(=O)O; Sar = CNCC(=O)O; tBu = CC(C)(C)*

How the values were obtained:
[1] = Metabolic stability in human hepatic microsome; assay type: in vitro ADME; conditions: microsomes, pH 7.4; human hepatic microsome, NADPH(+); read-out: CL NADPH(+)
[2] = PAMPA (parallel artificial membrane permeability assay); assay type: in vitro ADME; conditions: PAMPA; membrane permeation rate (Pe); 50 mM MOPSO buffer pH 6.5 with 5.0% glycocholic acid, 37° C., 18 hours; read-out: iPAMPA Pe
How it was run: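 Artificial membrane was 10% (w/v) egg lecithin plus 0.5% (w/v) cholesterol in dodecane on a PVDF filter. A 10 mM DMSO stock was added at 0.5% (v/v) to donor buffer (50 mM MOPSO, pH 6.5, 5.0% glycocholic acid). After 18 h at 37 °C, LC/MS or LC/UV gave donor and acceptor levels for Pe.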

| SMILES | microsomal CLint at 1 uM [1] | Papp at 18 hours, 50 µM [2] |
| --- | --- | --- |
| CC[C@H](C)[C@H]1C(=O)N[C@@H](CC(C)C)C(=O)N(C)[C@@H](CC(C)C)C(=O)N[C@H](C(=O)N2CCCCC2)CC(=O)N(C)CCCC(=O)N(C)[C@@H](CC(C)C)C(=O)N[C@@H]([C@@H](C)O)C(=O)N(C)[C@@H](C)C(=O)N[C@@H](C)C(=O)N(C)[C@@H](Cc2ccccc2)C(=O)N(C)[C@@H](Cc2ccccc2)C(=O)N1C [DP-249] ([NMeGABA][NMeL]T[NMeA]A[NMeF][NMeF][NMeI]L[NMeL]D-Piperidide; lactam N-11) | 151 µL/min/mg | 340 nm/s |
| CC[C@H](C)[C@H]1C(=O)N(C)[C@@H](C(C)C)C(=O)N(C)[C@@H](CC(C)C)C(=O)N[C@@H]([C@@H](C)O)C(=O)N[C@H](C(=O)N2CCCCC2)CC(=O)N(C)CCCC(=O)N[C@@H](Cc2ccccc2)C(=O)N(C)[C@@H](CC(C)C)C(=O)N(C)[C@@H](C)C(=O)N(C)[C@@H](Cc2ccccc2)C(=O)N[C@@H](C)C(=O)N1C [DP-250] ([NMeGABA]F[NMeL][NMeA][NMeF]A[NMeI][NMeV][NMeL]TD-Piperidide; lactam N-11) | 42 µL/min/mg | 290 nm/s |
| CC[C@H](C)[C@H]1C(=O)N[C@H](C(=O)N2CCCCC2)CC(=O)N(C)CCCC(=O)N(C)[C@@H](CC(C)C)C(=O)N[C@@H](C)C(=O)N(C)[C@@H](CC(C)C)C(=O)N(C)[C@@H](Cc2ccccc2)C(=O)N(C)[C@@H](CC(C)C)C(=O)N[C@@H]([C@@H](C)O)C(=O)N(C)[C@@H](C)C(=O)N(C)[C@@H](Cc2ccccc2)C(=O)N1C [DP-251] ([NMeGABA][NMeL]A[NMeL][NMeF][NMeL]T[NMeA][NMeF][NMeI]D-Piperidide; lactam N-11) | 45 µL/min/mg | 240 nm/s |
| CC[C@H](C)[C@H]1C(=O)N(C)[C@@H](CC(C)C)C(=O)N[C@@H](Cc2ccccc2)C(=O)N[C@@H]([C@@H](C)O)C(=O)N[C@@H](CC(C)C)C(=O)N(C)[C@@H](Cc2ccccc2)C(=O)N(C)[C@@H](C(C)C)C(=O)N[C@H](C(=O)N2CCCCC2)CC(=O)N[C@H](C)C(=O)N[C@@H](C)C(=O)N1C [DP-252] ([dA]A[NMeI][NMeL]FTL[NMeF][NMeV]D-Piperidide; lactam N-10) | 119 µL/min/mg | 470 nm/s |
| CC[C@H](C)[C@H]1C(=O)N[C@H](C(=O)N2CCCCC2)CC(=O)N[C@H](C(C)C)C(=O)N[C@@H]([C@@H](C)O)C(=O)N(C)[C@@H](C)C(=O)N(C)[C@@H](C(C)C)C(=O)N[C@@H](Cc2ccccc2)C(=O)N(C)[C@@H](CC(C)C)C(=O)N[C@@H](C)C(=O)N(C)CC(=O)N1C [DP-253] ([dV]T[NMeA][NMeV]F[NMeL]A[Sar][NMeI]D-Piperidide; lactam N-10) | 42 µL/min/mg | 75 nm/s |
| CC[C@H](C)[C@H]1C(=O)N[C@@H](C)C(=O)N[C@H](C(=O)N2CCCCC2)CC(=O)N[C@H](C(C)C)C(=O)N[C@@H](Cc2ccccc2)C(=O)N(C)[C@@H](C(C)C)C(=O)N(C)[C@@H](C)C(=O)N[C@@H]([C@@H](C)O)C(=O)N(C)CC(=O)N(C)[C@@H](CC(C)C)C(=O)N1C [DP-254] ([dV]F[NMeV][NMeA]T[Sar][NMeL][NMeI]AD-Piperidide; lactam N-10) | 13 µL/min/mg | 35 nm/s |
| CC[C@H](C)[C@@H]1NC(=O)[C@H](CC(C)C)N(C)C(=O)[C@H](Cc2ccccc2)N(C)C(=O)[C@@H](C(C)C)NC(=O)C[C@@H](C(=O)N2CCCCC2)NC(=O)[C@H](CC(C)C)N(C)C(=O)[C@H](C)N(C)C(=O)[C@H]([C@@H](C)O)NC(=O)[C@H](Cc2ccccc2)N(C)C(=O)[C@H](C)N(C)C1=O [DP-255] ([dV][NMeF][NMeL]I[NMeA][NMeF]T[NMeA][NMeL]D-Piperidide; lactam N-10) | 79 µL/min/mg | 480 nm/s |
| CC[C@H](C)[C@H]1C(=O)N(C)[C@@H](CC(C)C)C(=O)N(C)[C@@H](Cc2ccccc2)C(=O)N[C@@H]([C@@H](C)O)C(=O)N(C)[C@@H](Cc2ccccc2)C(=O)N(C)[C@@H](CC(C)C)C(=O)N(C)[C@@H](CC(C)C)C(=O)N[C@H](C(=O)N2CCCCC2)CC(=O)N[C@H](C(C)C)C(=O)N[C@@H](C)C(=O)N1C [DP-256] ([dV]A[NMeI][NMeL][NMeF]T[NMeF][NMeL][NMeL]D-Piperidide; lactam N-10) | 44 µL/min/mg | 190 nm/s |
| CC[C@H](C)[C@H]1C(=O)N[C@H](C(=O)N2CCCCC2)CC(=O)N[C@H](C(C)C)C(=O)N(C)[C@@H](CC(C)C)C(=O)N(C)[C@@H](Cc2ccccc2)C(=O)N(C)[C@@H](C)C(=O)N[C@@H]([C@@H](C)O)C(=O)N(C)CC(=O)N(C)[C@@H](CC(C)C)C(=O)N[C@@H](COC(C)(C)C)C(=O)N1C [DP-257] ([dV][NMeL][NMeF][NMeA]T[Sar][NMeL]S(tBu)[NMeI]D-Piperidide; lactam N-10) | 46 µL/min/mg | 330 nm/s |
| CC[C@H](C)[C@@H]1NC(=O)[C@H](C)N(C)C(=O)[C@H](C)N(C)C(=O)C[C@@H](C(=O)N2CCCCC2)NC(=O)[C@H](CC(C)C)N(C)C(=O)[C@H](Cc2ccccc2)N(C)C(=O)[C@H](C)N(C)C(=O)[C@H]([C@@H](C)O)NC(=O)[C@H](Cc2ccccc2)N(C)C(=O)[C@H](CC(C)C)N(C)C1=O [DP-258] ([NMeA][NMeA]I[NMeL][NMeF]T[NMeA][NMeF][NMeL]D-Piperidide; lactam N-10) | 188 µL/min/mg | 520 nm/s |
| CC[C@H](C)[C@H]1C(=O)N(C)[C@@H](CC(C)C)C(=O)N(C)[C@@H](Cc2ccccc2)C(=O)N[C@@H](CC(C)C)C(=O)N(C)[C@@H](C(C)C)C(=O)N[C@@H](Cc2ccccc2)C(=O)N[C@@H]([C@@H](C)O)C(=O)N[C@H](C(=O)N2CCCCC2)CC(=O)N(C)CCC(=O)N[C@@H](C)C(=O)N1C [DP-259] ([NMeβAla]A[NMeI][NMeL][NMeF]L[NMeV]FTD-Piperidide; lactam N-10) | 91 µL/min/mg | 280 nm/s |
| CC(C)C[C@H]1C(=O)N[C@@H]([C@@H](C)O)C(=O)N(C)[C@@H](Cc2ccccc2)C(=O)N(C)[C@@H](CC(C)C)C(=O)NCC(=O)N(C)[C@@H](C(C)C)C(=O)N[C@@H](Cc2ccccc2)C(=O)N[C@H](C(=O)N2CCCCC2)CC(=O)N(C)[C@H](C)C(=O)N[C@@H](COC(C)(C)C)C(=O)N1C [DP-260] ([dNMeA]S(tBu)[NMeL]T[NMeF][NMeL]G[NMeV]FD-Piperidide; lactam N-10) | 259 µL/min/mg | 440 nm/s |
| CC[C@H](C)[C@@H]1NC(=O)[C@H](C)N(C)C(=O)CCCN(C)C(=O)C[C@@H](C(=O)N2CCCCC2)NC(=O)[C@H](CC(C)C)N(C)C(=O)[C@H](C)N(C)C(=O)[C@H]([C@@H](C)O)NC(=O)[C@H](Cc2ccccc2)N(C)C(=O)[C@H](Cc2ccccc2)N(C)C(=O)[C@H](CC(C)C)N(C)C1=O [DP-261] ([NMeGABA][NMeA]I[NMeL][NMeF][NMeF]T[NMeA][NMeL]D-Piperidide; lactam N-10) | 84 µL/min/mg | 270 nm/s |
| CC[C@H](C)[C@H]1C(=O)N(C)[C@@H](CC(C)C)C(=O)N[C@H](C(=O)N2CCCCC2)CC(=O)N(C)CCCC(=O)N[C@@H]([C@@H](C)O)C(=O)N(C)[C@@H](C)C(=O)N(C)[C@@H](Cc2ccccc2)C(=O)N(C)[C@@H](Cc2ccccc2)C(=O)N(C)[C@@H](CC(C)C)C(=O)NCC(=O)N1C [DP-262] ([NMeGABA]T[NMeA][NMeF][NMeF][NMeL]G[NMeI][NMeL]D-Piperidide; lactam N-10) | 94 µL/min/mg | 380 nm/s |
| CC(C)C[C@H]1C(=O)N(C)[C@@H](Cc2ccccc2)C(=O)N(C)[C@@H](CC(C)C)C(=O)N[C@H](C(=O)N2CCCCC2)CC(=O)N[C@H](C)C(=O)N[C@@H](C)C(=O)N[C@@H]([C@@H](C)O)C(=O)N(C)[C@@H](C)C(=O)N[C@@H](Cc2ccccc2)C(=O)N1C [DP-263] ([dA]AT[NMeA]F[NMeL][NMeF][NMeL]D-Piperidide; lactam N-9) | 136 µL/min/mg | 340 nm/s |
| CC(C)C[C@@H]1NC(=O)[C@H](CC(C)C)N(C)C(=O)[C@@H](C(C)C)NC(=O)C[C@@H](C(=O)N2CCCCC2)NC(=O)[C@H](CC(C)C)N(C)C(=O)[C@H](Cc2ccccc2)N(C)C(=O)[C@H](C)N(C)C(=O)[C@H]([C@@H](C)O)NC(=O)[C@H](Cc2ccccc2)N(C)C1=O [DP-264] ([dV][NMeL]L[NMeF]T[NMeA][NMeF][NMeL]D-Piperidide; lactam N-9) | 94 µL/min/mg | 370 nm/s |
| CC(C)C[C@H]1C(=O)N[C@@H](COC(C)(C)C)C(=O)N[C@H](C(=O)N2CCCCC2)CC(=O)N[C@H](C(C)C)C(=O)N(C)[C@@H](Cc2ccccc2)C(=O)N(C)[C@@H](C)C(=O)N(C)[C@@H](CC(C)C)C(=O)N[C@@H]([C@@H](C)O)C(=O)N(C)[C@@H](C)C(=O)N1C [DP-266] ([dV][NMeF][NMeA][NMeL]T[NMeA][NMeL]S(tBu)D-Piperidide; lactam N-9) | 134 µL/min/mg | 430 nm/s |
| CC(C)C[C@H]1C(=O)N[C@@H](COC(C)(C)C)C(=O)N[C@H](C(=O)N2CCCCC2)CC(=O)N(C)[C@@H](C)C(=O)N(C)[C@@H](C)C(=O)N(C)[C@@H](Cc2ccccc2)C(=O)N(C)[C@@H](CC(C)C)C(=O)N[C@@H]([C@@H](C)O)C(=O)N(C)[C@@H](C)C(=O)N1C [DP-267] ([NMeA][NMeA][NMeF][NMeL]T[NMeA][NMeL]S(tBu)D-Piperidide; lactam N-9) | 75 µL/min/mg | 250 nm/s |
| CC(C)C[C@@H]1NC(=O)[C@H](Cc2ccccc2)N(C)C(=O)CCN(C)C(=O)C[C@@H](C(=O)N2CCCCC2)NC(=O)[C@H](CC(C)C)N(C)C(=O)[C@H](C)N(C)C(=O)[C@H]([C@@H](C)O)NC(=O)[C@H](CC(C)C)N(C)C(=O)[C@H](Cc2ccccc2)N(C)C1=O [DP-268] ([NMeβAla][NMeF]L[NMeF][NMeL]T[NMeA][NMeL]D-Piperidide; lactam N-9) | 508 µL/min/mg | 500 nm/s |
